Laboratory results reported in US12459974B2, “Bicyclic peptide ligands specific for Nectin-4” (priority 2018, dated 2025).
*1 amine or outer side, *2 acyl side, *3 side chain or, on linkers, in order; H or OH if unused. Where a SMILES comes first, the peptide text is derived from it. Bridges are numbered along the chain shown (N, C = ends). Roman numbers before positions name the chains, in order. [ ]: non-standard residue; d: D form. The star is where a group is joined. ξ: configuration not given here. TATA = O=C(CC[*:1])N1CN(C(=O)CC[*:2])CN(C(=O)CC[*:3])C1; Dolaproine = CO[C@@H]([C@@H]1CCCN1)[C@@H](C)C(=O)O; X1 = CC[C@H](C)C(C(CC(=O)[*:2])OC)N(C)[*:1]; 1Nal = N[C@@H](Cc1cccc2ccccc12)C(=O)O; X3 = O=C(CCCC(=O)[*:2])NCCC(=O)[*:1]; PABC = O=C(OCc1ccc(N[*:1])cc1)[*:2]; Hyp = O=C(O)[C@@H]1C[C@@H](O)CN1; hArg = N=C(N)NCCCC[C@H](N)C(=O)O; Cit = NC(=O)NCCC[C@H](N)C(=O)O; X2 = CC(N*)[C@@H](O)c1ccccc1; ξNMeV = CNC(C(=O)O)C(C)C; ξV = CC(C)C(N)C(=O)O; Sar = CNCC(=O)O

How the values were obtained:
[1] = tested on: HT-1376 xenograft; assay: Example 9.3: in vivo efficacy in HT-1376 xenograft in CB17-SCID mice; set-up: species or system Mus Musculus; conditions: for TGI / Tumor volume (TV) / Tumor volume / T/C: day 14; for Tumor volume trace over time: mean; for Tumor volume: mean ± SEM; for T/C: treated/control group average tumor volume
[2] = tested on: MDA-MB-468 xenograft; assay: Example 9.9: in vivo efficacy of BCY8245 alone or with BCY8234 in MDA-MB-468 xenograft (large tumors) in Balb/c nude mice; set-up: species or system Mus Musculus
[3] = 3 mg/kg qw in combination with BCY8234 300 mg/kg qw, day 28

SMILES: CC[C@H](C)C(C(CC(=O)N1CCC[C@H]1[C@H](OC)[C@@H](C)C(=O)NC(C)[C@@H](O)c1ccccc1)OC)N(C)C(=O)[C@@H](NC(=O)C(C(C)C)N(C)C(=O)OCc1ccc(NC(=O)[C@H](CCCNC(N)=O)NC(=O)C(NC(=O)CCCC(=O)NCCC(=O)N(C)CC(=O)N(C)CC(=O)N(C)CC(=O)N(C)CC(=O)N(C)CC(=O)N(C)CC(=O)N(C)CC(=O)N(C)CC(=O)N(C)CC(=O)N(C)CC(=O)N[C@H]2CSCCC(=O)N3CN4CN(C3)C(=O)CCSC[C@H](NC(=O)[C@@H](CC(=O)O)NC(=O)[C@H](Cc3cccc5ccccc35)NC(=O)[C@@H]3CCCN3C2=O)C(=O)N[C@@H](CCSC)C(=O)N[C@@H](CCCCNC(=N)N)C(=O)N[C@@H](CC(=O)O)C(=O)N[C@@H](Cc2c[nH]c3ccccc23)C(=O)N[C@@H](CO)C(=O)N[C@@H]([C@@H](C)O)C(=O)N2CCC[C@H]2C(=O)N2C[C@H](O)C[C@H]2C(=O)N[C@@H](Cc2c[nH]c3ccccc23)C(=O)N[C@H](C(N)=O)CSCCC4=O)C(C)C)cc1)C(C)C (stereo partly drawn) [BCY8245, MMAE-PABC-Cit-Val-Glutaryl-BCY8234] (I: [Sar][Sar][Sar][Sar][Sar][Sar][Sar][Sar][Sar][Sar]CP[1Nal][dD]CM[hArg]DWSTP[Hyp]WC-NH2 / II: [ξV][Cit][PABC][ξNMeV]V[X1][Dolaproine]-X2; linker I:11-I:15-I:25 via TATA; linker I:N-II:N via X3)
- TGI ([1]; 3 mg/kg biw): 72.3%
- Tumor volume (TV) ([1]; 3 mg/kg biw): 407 mm^3
- TGI ([1]; 3 mg/kg qw): 50.9%
- Tumor volume (TV) ([1]; 3 mg/kg qw): 603 mm^3
- TGI ([1]; 5 mg/kg qw): 66.0%
- Tumor volume (TV) ([1]; 5 mg/kg qw): 465 mm^3
- Tumor volume trace over time ([1]; 3 mpk, biw, iv, day 0 after the start of treatment): 154 mm^3
- Tumor volume trace over time ([1]; 3 mpk, biw, iv, day 2 after the start of treatment): 248 mm^3
- Tumor volume trace over time ([1]; 3 mpk, biw, iv, day 5 after the start of treatment): 203 mm^3
- Tumor volume trace over time ([1]; 3 mpk, biw, iv, day 7 after the start of treatment): 273 mm^3
- Tumor volume trace over time ([1]; 3 mpk, biw, iv, day 9 after the start of treatment): 356 mm^3
- Tumor volume trace over time ([1]; 3 mpk, biw, iv, day 12 after the start of treatment): 391 mm^3
- TGI ([1]; 3 mpk, biw, iv): 72.3%
- Tumor volume ([1]; 3 mpk, biw, iv): 407 ± 53 mm^3
- T/C ([1]; 3 mpk, biw, iv): 38.1%
- Tumor volume trace over time ([1]; 3 mpk, biw, iv, day 14 after the start of treatment): 407 mm^3
- Tumor volume trace over time ([1]; 3 mpk, qw, iv, day 0 after the start of treatment): 153 mm^3
- Tumor volume trace over time ([1]; 3 mpk, qw, iv, day 2 after the start of treatment): 254 mm^3
- Tumor volume trace over time ([1]; 3 mpk, qw, iv, day 5 after the start of treatment): 298 mm^3
- Tumor volume trace over time ([1]; 3 mpk, qw, iv, day 7 after the start of treatment): 398 mm^3
- Tumor volume trace over time ([1]; 3 mpk, qw, iv, day 9 after the start of treatment): 468 mm^3
- Tumor volume trace over time ([1]; 3 mpk, qw, iv, day 12 after the start of treatment): 502 mm^3
- TGI ([1]; 3 mpk, qw, iv): 50.9%
- Tumor volume ([1]; 3 mpk, qw, iv): 603 ± 76 mm^3
- T/C ([1]; 3 mpk, qw, iv): 56.4%
- Tumor volume trace over time ([1]; 3 mpk, qw, iv, day 14 after the start of treatment): 603 mm^3
- Tumor volume trace over time ([1]; 5 mpk, qw, iv, day 0 after the start of treatment): 153 mm^3
- Tumor volume trace over time ([1]; 5 mpk, qw, iv, day 2 after the start of treatment): 237 mm^3
- Tumor volume trace over time ([1]; 5 mpk, qw, iv, day 5 after the start of treatment): 228 mm^3
- Tumor volume trace over time ([1]; 5 mpk, qw, iv, day 7 after the start of treatment): 317 mm^3
- Tumor volume trace over time ([1]; 5 mpk, qw, iv, day 9 after the start of treatment): 394 mm^3
- Tumor volume trace over time ([1]; 5 mpk, qw, iv, day 12 after the start of treatment): 438 mm^3
- TGI ([1]; 5 mpk, qw, iv): 66.0%
- Tumor volume ([1]; 5 mpk, qw, iv): 465 ± 33 mm^3
- T/C ([1]; 5 mpk, qw, iv): 43.5%
- Tumor volume trace over time ([1]; 5 mpk, qw, iv, day 14 after the start of treatment): 465 mm^3
- TGI ([2]; 1 mg/kg qw, day 28): 126.6%
- Tumor volume (TV) ([2]; 1 mg/kg qw, day 28): 384 mm^3
- TGI [2, 3]: 234.0%
- Tumor volume (TV) [2, 3]: 55 mm^3
- tumor relapse (in words) ([2]; 3 mg/kg qw in combination with BCY8234 300 mg/kg qw, whole monitoring schedule): didn't showed any relapse
- tumor relapse (in words) ([2]; 3 mg/kg qw, after ceasing the treatment): some tumor relapse
- TGI ([2]; 3 mg/kg qw, day 28): 234.6%
- Tumor volume (TV) ([2]; 3 mg/kg qw, day 28): 50 mm^3
- Tumor volume ([2]; 1 mpk, qw, day 0 after the start of treatment): 466 mm^3
- Tumor volume ([2]; 1 mpk, qw, day 2): 480 mm^3
- Tumor volume ([2]; 1 mpk, qw, day 5): 453 mm^3
- Tumor volume ([2]; 1 mpk, qw, day 7): 474 mm^3
- Tumor volume ([2]; 1 mpk, qw, day 9): 446 mm^3
- Tumor volume ([2]; 1 mpk, qw, day 12): 461 mm^3
- Tumor volume ([2]; 1 mpk, qw, day 14): 460 mm^3
- Tumor volume ([2]; 1 mpk, qw, day 16): 433 mm^3
- Tumor volume ([2]; 1 mpk, qw, day 19): 412 mm^3
- Tumor volume ([2]; 1 mpk, qw, day 21): 430 mm^3
- Tumor volume ([2]; 1 mpk, qw, day 23): 421 mm^3
- Tumor volume ([2]; 1 mpk, qw, day 26): 382 mm^3
- T/C ([2]; 1 mpk, qw, day 28): 49.7%
- TGI ([2]; 1 mpk, qw, day 28): 126.6%
- Tumor volume ([2]; 1 mpk, qw, day 28): 384 mm^3
- Tumor volume ([2]; 3 mpk, qw, day 0 after the start of treatment): 464 mm^3
- Tumor volume ([2]; 3 mpk, qw, day 2): 451 mm^3
- Tumor volume ([2]; 3 mpk, qw, day 5): 388 mm^3
- Tumor volume ([2]; 3 mpk, qw, day 7): 333 mm^3
- Tumor volume ([2]; 3 mpk, qw, day 9): 284 mm^3
- Tumor volume ([2]; 3 mpk, qw, day 12): 168 mm^3
- Tumor volume ([2]; 3 mpk, qw, day 14): 129 mm^3
- Tumor volume ([2]; 3 mpk, qw, day 16): 93 mm^3
- Tumor volume ([2]; 3 mpk, qw, day 19): 83 mm^3
- Tumor volume ([2]; 3 mpk, qw, day 21): 71 mm^3
- Tumor volume ([2]; 3 mpk, qw, day 23): 60 mm^3
- Tumor volume ([2]; 3 mpk, qw, day 26): 49 mm^3
- T/C ([2]; 3 mpk, qw, day 28): 6.4%
- TGI ([2]; 3 mpk, qw, day 28): 234.6%
- Tumor volume ([2]; 3 mpk, qw, day 28): 50 mm^3
- Tumor volume ([2]; Group1, Vehicle, dosed with 5 mpk BCY8245 on PG-D28, day 30): 625 ± 27 mm^3
- Tumor volume ([2]; Group1, Vehicle, dosed with 5 mpk BCY8245 on PG-D28, day 33): 477 ± 31 mm^3
- Tumor volume ([2]; Group1, Vehicle, dosed with 5 mpk BCY8245 on PG-D28, day 35): 405 ± 65 mm^3
- Tumor volume ([2]; Group1, Vehicle, dosed with 5 mpk BCY8245 on PG-D28, day 37): 237 ± 36 mm^3
- Tumor volume ([2]; Group1, Vehicle, dosed with 5 mpk BCY8245 on PG-D28, day 40): 148 ± 33 mm^3
- Tumor volume ([2]; Group1, Vehicle, dosed with 5 mpk BCY8245 on PG-D28, day 42): 142 ± 33 mm^3
- Tumor volume ([2]; Group1, Vehicle, dosed with 5 mpk BCY8245 on PG-D28, day 44): 132 ± 69 mm^3
- Tumor volume ([2]; Group1, Vehicle, dosed with 5 mpk BCY8245 on PG-D28, day 48): 146 ± 100 mm^3
- Tumor volume ([2]; Group1, Vehicle, dosed with 5 mpk BCY8245 on PG-D28, day 51): 171 ± 122 mm^3
